Data taken from PubChem BioAssay (NCI).
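1) Cells in 96-well plates. 2) Compound, 48 h, 5 concentrations. 3) Linear interpolation between surrounding doses. 4) Unreached endpoint = highest concentration. At the GI50, growth is halved. TGI: concentration producing complete growth inhibition.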

How the values were obtained:
Experiment in all cases: DTP human tumour cell line panel, 48 h
786-0 renal = test system: 786-0 renal
A498 renal = test system: A498 renal
A549 NSCLC = test system: A549 NSCLC
ACHN renal = test system: ACHN renal
BT-549 breast = test system: BT-549 breast
CAKI-1 renal = test system: CAKI-1 renal
CCRF-CEM leukemia = test system: CCRF-CEM leukemia
COLO 205 colon = test system: COLO 205 colon
DU-145 prostate = test system: DU-145 prostate
EKVX NSCLC = test system: EKVX NSCLC
HCC-2998 colon = test system: HCC-2998 colon
HCT-116 colon = test system: HCT-116 colon
HCT-15 colon = test system: HCT-15 colon
HL-60(TB) leukemia = test system: HL-60(TB) leukemia
HOP-62 NSCLC = test system: HOP-62 NSCLC
HS 578T breast = test system: HS 578T breast
HT29 colon = test system: HT29 colon
IGROV1 ovarian = test system: IGROV1 ovarian
KM12 colon = test system: KM12 colon
LOX IMVI melanoma = test system: LOX IMVI melanoma
M14 melanoma = test system: M14 melanoma
MALME-3M melanoma = test system: MALME-3M melanoma
MCF7 breast = test system: MCF7 breast
MDA-MB-231 breast = test system: MDA-MB-231 breast
MDA-MB-435 = test system: MDA-MB-435
MOLT-4 leukemia = test system: MOLT-4 leukemia
NCI-H226 lung = test system: NCI-H226 lung
NCI-H23 lung = test system: NCI-H23 lung
NCI-H460 lung = test system: NCI-H460 lung
NCI-H522 lung = test system: NCI-H522 lung
NCI/ADR-RES ovarian = test system: NCI/ADR-RES ovarian
OVCAR-4 ovarian = test system: OVCAR-4 ovarian
OVCAR-5 ovarian = test system: OVCAR-5 ovarian
OVCAR-8 ovarian = test system: OVCAR-8 ovarian
PC-3 prostate = test system: PC-3 prostate
RPMI-8226 leukemia = test system: RPMI-8226 leukemia
RXF 393 renal = test system: RXF 393 renal
SF-268 CNS = test system: SF-268 CNS
SF-295 CNS = test system: SF-295 CNS
SF-539 CNS = test system: SF-539 CNS
SK-MEL-28 melanoma = test system: SK-MEL-28 melanoma
SK-MEL-5 melanoma = test system: SK-MEL-5 melanoma
SK-OV-3 ovarian = test system: SK-OV-3 ovarian
SN12C renal = test system: SN12C renal
SNB-19 CNS = test system: SNB-19 CNS
SNB-75 CNS = test system: SNB-75 CNS
SR leukemia = test system: SR leukemia
SW-620 colon = test system: SW-620 colon
T-47D breast = test system: T-47D breast
TK-10 renal = test system: TK-10 renal
U251 CNS = test system: U251 CNS
UACC-257 melanoma = test system: UACC-257 melanoma
UACC-62 melanoma = test system: UACC-62 melanoma
UO-31 renal = test system: UO-31 renal

O=C(N/N=C\c1ccc(Cl)cc1)c1ccc2nc(-c3ccc(Br)cc3)[nH]c2c1
GI50 (786-0 renal): 1760 nM | TGI (786-0 renal): 3260 nM | GI50 (A498 renal): 1670 nM | TGI (A498 renal): 3680 nM | GI50 (A549 NSCLC): 1750 nM | TGI (A549 NSCLC): 3300 nM | GI50 (ACHN renal): 1750 nM | TGI (ACHN renal): 3170 nM | GI50 (BT-549 breast): 1870 nM | TGI (BT-549 breast): 5540 nM | GI50 (CAKI-1 renal): 1600 nM | TGI (CAKI-1 renal): 3100 nM | GI50 (CCRF-CEM leukemia): 1900 nM | TGI (CCRF-CEM leukemia): 4730 nM | GI50 (COLO 205 colon): 1430 nM | TGI (COLO 205 colon): 2860 nM | GI50 (DU-145 prostate): 1980 nM | TGI (DU-145 prostate): 4180 nM | GI50 (EKVX NSCLC): 2030 nM | TGI (EKVX NSCLC): 4280 nM | GI50 (HCC-2998 colon): 1830 nM | TGI (HCC-2998 colon): 3610 nM | GI50 (HCT-116 colon): 1490 nM | TGI (HCT-116 colon): 2990 nM | GI50 (HCT-15 colon): 1520 nM | TGI (HCT-15 colon): 3330 nM | GI50 (HL-60(TB) leukemia): 2040 nM | TGI (HL-60(TB) leukemia): 5030 nM | GI50 (HOP-62 NSCLC): 1640 nM | TGI (HOP-62 NSCLC): 3200 nM | GI50 (HS 578T breast): 2190 nM | TGI (HS 578T breast): 5270 nM | GI50 (HT29 colon): 1040 nM | TGI (HT29 colon): 2380 nM | GI50 (IGROV1 ovarian): 1580 nM | TGI (IGROV1 ovarian): 3410 nM | GI50 (KM12 colon): 1860 nM | TGI (KM12 colon): 4160 nM | GI50 (LOX IMVI melanoma): 1490 nM | TGI (LOX IMVI melanoma): 3090 nM | GI50 (M14 melanoma): 1920 nM | TGI (M14 melanoma): 3930 nM | GI50 (MALME-3M melanoma): 1680 nM | TGI (MALME-3M melanoma): 3220 nM | GI50 (MCF7 breast): 1010 nM | TGI (MCF7 breast): 2460 nM | GI50 (MDA-MB-231 breast): 1900 nM | TGI (MDA-MB-231 breast): 3890 nM | GI50 (MDA-MB-435): 1520 nM | TGI (MDA-MB-435): 3150 nM | GI50 (MOLT-4 leukemia): 1620 nM | TGI (MOLT-4 leukemia): 4290 nM | GI50 (NCI-H226 lung): 4960 nM | TGI (NCI-H226 lung): 24000 nM | GI50 (NCI-H23 lung): 1860 nM | TGI (NCI-H23 lung): 4020 nM | GI50 (NCI-H460 lung): 601 nM | TGI (NCI-H460 lung): 1940 nM | GI50 (NCI-H522 lung): 1630 nM | TGI (NCI-H522 lung): 3380 nM | GI50 (NCI/ADR-RES ovarian): 2440 nM | TGI (NCI/ADR-RES ovarian): 8010 nM | GI50 (OVCAR-4 ovarian): 2070 nM | TGI (OVCAR-4 ovarian): 4830 nM | GI50 (OVCAR-5 ovarian): 1990 nM | TGI (OVCAR-5 ovarian): 4260 nM | GI50 (OVCAR-8 ovarian): 1490 nM | TGI (OVCAR-8 ovarian): 2880 nM | GI50 (PC-3 prostate): 1580 nM | TGI (PC-3 prostate): 2990 nM | GI50 (RPMI-8226 leukemia): 1600 nM | TGI (RPMI-8226 leukemia): 3890 nM | GI50 (RXF 393 renal): 1500 nM | TGI (RXF 393 renal): 3180 nM | GI50 (SF-268 CNS): 2560 nM | TGI (SF-268 CNS): 6870 nM | GI50 (SF-295 CNS): 2070 nM | TGI (SF-295 CNS): 4590 nM | GI50 (SF-539 CNS): 1720 nM | TGI (SF-539 CNS): 3240 nM | GI50 (SK-MEL-28 melanoma): 1730 nM | TGI (SK-MEL-28 melanoma): 3260 nM | GI50 (SK-MEL-5 melanoma): 1850 nM | TGI (SK-MEL-5 melanoma): 3630 nM | GI50 (SK-OV-3 ovarian): 1510 nM | TGI (SK-OV-3 ovarian): 3870 nM | GI50 (SN12C renal): 1760 nM | TGI (SN12C renal): 3490 nM | GI50 (SNB-19 CNS): 2110 nM | TGI (SNB-19 CNS): 4910 nM | GI50 (SNB-75 CNS): 1830 nM | TGI (SNB-75 CNS): 4010 nM | GI50 (SR leukemia): 895 nM | TGI (SR leukemia): 3390 nM | GI50 (SW-620 colon): 1600 nM | TGI (SW-620 colon): 3260 nM | GI50 (T-47D breast): 1580 nM | TGI (T-47D breast): 3250 nM | GI50 (TK-10 renal): 2070 nM | TGI (TK-10 renal): 3890 nM | GI50 (U251 CNS): 1780 nM | TGI (U251 CNS): 3180 nM | GI50 (UACC-257 melanoma): 1600 nM | TGI (UACC-257 melanoma): 3100 nM | GI50 (UACC-62 melanoma): 1850 nM | TGI (UACC-62 melanoma): 3850 nM | GI50 (UO-31 renal): 1450 nM | TGI (UO-31 renal): 2860 nM
